Here are results for two compounds from US11739043B2, “Illudin analogs, uses thereof, and methods for synthesizing the same” (Lantern Pharma Inc., priority 2018, dated 2023).

Holding throughout (format): cell-based
In one experiment the test system is OVCAR-3 cell line. Put plainly: Cytotoxicity / growth inhibition, 96-well CellTiter-Glo assay, OVCAR-3. The settings on record: for GI50: Homo sapiens, 72 h, OVCAR-3, ovarian cancer cell line, 3-day assay, read-out: GI50, concentration that inhibits 50% cell growth. As to the method:
(§1) Cytotoxicity. The growth-inhibition activities of both purified UMAF (also referred to as UMAF in this example) optical enantiomers were studied in a standard 96-well cell-based assay using representative cell lines from prostate, ovarian, and lung cancers. The concentrations that cause a 50% inhibition of cell growth (GI50) were determined using a luminescent vital assay reagent (CellTiter-Glo®, Promega Corporation). The growth inhibition curves as a function of UMAF concentration are shown from a representative assay. […] The GI50 concentrations of the two forms for the six cell lines are shown below.

The test system of a further experiment is SK-OV3 cell line. As to the kind of experiment: Cytotoxicity / growth inhibition, 96-well CellTiter-Glo assay, SK-OV3. The settings on record: for GI50: Homo sapiens, SK-OV-3, 72 h, SK-OV3, ovarian cancer cell line, 3-day assay, read-out: GI50, concentration that inhibits 50% cell growth. How it is done:
as §1
Background: ATP-based viability assays read luminescence as a measure of living cells.

In a further experiment the test system is HCC827 cell line. Put plainly: Cytotoxicity / growth inhibition, 96-well CellTiter-Glo assay, HCC827. As to conditions: Homo sapiens, 72 h; HCC827, lung cancer cell line, 3-day assay; read-out: GI50, concentration that inhibits 50% cell growth. As to the method:
as §1

Another experiment deals with H1975 cell line. Put plainly: Cytotoxicity / growth inhibition, 96-well CellTiter-Glo assay, H1975. As to conditions: for GI50: Homo sapiens, NCI-H1975, 72 h, H1975, lung cancer cell line, 3-day assay, read-out: GI50, concentration that inhibits 50% cell growth. As to the method: as §1
Another experiment deals with DU145 cell line. As to the kind of experiment: Cytotoxicity / growth inhibition, 96-well CellTiter-Glo assay, DU145. The settings on record: for GI50: Homo sapiens, DU-145, 72 h, DU145, prostate cancer cell line, 3-day assay, read-out: GI50, concentration that inhibits 50% cell growth. How it is done: as §1
For another experiment, the system named is PC3 cell line. Put plainly: Cytotoxicity / growth inhibition, 96-well CellTiter-Glo assay, PC3. As to conditions: Homo sapiens, PC-3, 72 h; PC3, prostate cancer cell line, 3-day assay; read-out: GI50, concentration that inhibits 50% cell growth. How it is done:
as §1

SMILES strings stand for the structures.

On to `CC1=C(CN(O)C(N)=O)C2=C(C)C3(CC3)[C@](C)(O)C(=O)C2=C1` [(+)-UMAF, (+)-hydroxyureamethylacylfulvene], for which the GI50 with OVCAR-3 cell line turned out to be 254 nM; in the experiment with SK-OV3 cell line it was 554 nM; with HCC827 cell line, 897 nM; with H1975 cell line, 287 nM; in the experiment with DU145 cell line, 34.8 nM; in the experiment with PC3 cell line it was 1120 nM. Besides, the “toxicity compared between the two enantiomers (growth inhibition curves)” value is “more toxic” in the experiment with OVCAR-3 cell line (OVCAR3, FIG. 6); “more toxic” with SK-OV3 cell line (SK-OV3, FIG. 7); “more toxic” in the experiment with H1975 cell line (H1975, FIG. 9); “more toxic” in the experiment on DU145 cell line (DU145, FIG. 4).

Turning to `CC1=C(CN(O)C(N)=O)C2=C(C)C3(CC3)[C@@](C)(O)C(=O)C2=C1` [(−)-UMAF, (−)-hydroxyureamethylacylfulvene], the GI50 amounted to 1820 nM in the experiment with OVCAR-3 cell line; 2400 nM with SK-OV3 cell line; 1640 nM in the experiment with HCC827 cell line; 6320 nM in the experiment on H1975 cell line; 506 nM in the experiment on DU145 cell line; 824 nM with PC3 cell line.
